Results reported in PMC4526861, “Inhibition of protein kinase C by isojacareubin suppresses hepatocellular carcinoma metastasis and induces apoptosis in vitro and in vivo” (Scientific Reports, 2015).

Assays:
[1] = tested on: cPKC and nPKC; assay: Pull-down competition with free ISJ; type: binding, human; conditions: free ISJ 20 μM, HepG2 lysates
Excerpt: (§1) To identify whether ISJ and compound 7 target PKC in cells, we performed pull-down experiments using ISJ- and compound 7-coupled Sepharose beads with HepG2 cell lysates. Endogenous cPKC (PKCα) and nPKC (PKCδ, PKCε and PKCμ) in HepG2 lysates were pulled down by ISJ-coupled CNBr-activated Sepharose 4B beads (Fig. 5a).
Figure 5 Direct interactions between ISJ and PKC isotypes. (a) Immobilized on CNBr-activated Sepharose 4B beads, ISJ directly bound to cPKC (PKCα) and nPKC (PKCδ, PKCε and PKCμ). (b) HepG2 cell lysates were incubated with ISJ-conjugated Sepharose 4B beads or with DMSO-conjugated control beads in the absence or presence of free ISJ (20 μM), and the bead-captured proteins were subjected to analysis by immunoblotting.
(§2) The control beads were prepared by incubating the beads with DMSO. Proteins (500 μg) from lysed HepG2 cells were mixed with either the control beads, compound 7-coupled beads, or ISJ-coupled beads (100 μL) in reaction buffer [50 mM Tris (pH 7.5), 5 mM EDTA, 150 mM NaCl, 1 mM DTT, 0.01% NP-40, 2 μg/mL BSA, 1 mM PMSF, 1% protease inhibitor mixture]. After incubation with gentle rocking overnight at 4 °C, the beads were washed 5 times with washing buffer [50 mM Tris (pH 7.5), 5 mM EDTA, 150 mM NaCl, 1 mM DTT, 0.01% NP-40, 1 mM PMSF], and binding was visualized by western blotting.

[2] = tested on: QGY-7703 cells; assay: Cell proliferation assay (CCK-8), QGY-7703; type: cell-based, human
Protocol: The human HCC cell lines QGY-7703, SMMC-7721 and HepG2 and the liver cell line QSG-7701 were supplied by the Cell Resource Center, Institute of Life Sciences, Chinese Academy of Medical Science. QGY-7703, SMMC-7721 and QSG-7701 cells were cultured in 1640 medium (Gibco), and HepG2 cells were cultured in DMEM medium (Gibco) at 37 °C in moist air supplemented with 5% CO2. All media were supplemented with 10% fetal bovine serum (FBS) and 100 Units/mL of penicillin/streptomycin.
The cell viability assay was performed as previously reported using a Cell Counting Kit-8 (CCK-8; Dojindo, Kumamoto, Japan)[33][34]. The relative cell viability was presented as % inhibition and calculated using the following formula: […]

[3] = molecular target: T1, PKCε (Homo sapiens, UniProt Q02156); assay: Cell-based pull-down assay, PKCε; type: binding; conditions: HepG2 lysates
T1 construct: Endogenous cPKC (PKCα) and nPKC (PKCδ, PKCε and PKCμ) in HepG2 lysates were pulled down; endogenous in cells; host or cells: HepG2
T1 sequence (Q02156 1-737): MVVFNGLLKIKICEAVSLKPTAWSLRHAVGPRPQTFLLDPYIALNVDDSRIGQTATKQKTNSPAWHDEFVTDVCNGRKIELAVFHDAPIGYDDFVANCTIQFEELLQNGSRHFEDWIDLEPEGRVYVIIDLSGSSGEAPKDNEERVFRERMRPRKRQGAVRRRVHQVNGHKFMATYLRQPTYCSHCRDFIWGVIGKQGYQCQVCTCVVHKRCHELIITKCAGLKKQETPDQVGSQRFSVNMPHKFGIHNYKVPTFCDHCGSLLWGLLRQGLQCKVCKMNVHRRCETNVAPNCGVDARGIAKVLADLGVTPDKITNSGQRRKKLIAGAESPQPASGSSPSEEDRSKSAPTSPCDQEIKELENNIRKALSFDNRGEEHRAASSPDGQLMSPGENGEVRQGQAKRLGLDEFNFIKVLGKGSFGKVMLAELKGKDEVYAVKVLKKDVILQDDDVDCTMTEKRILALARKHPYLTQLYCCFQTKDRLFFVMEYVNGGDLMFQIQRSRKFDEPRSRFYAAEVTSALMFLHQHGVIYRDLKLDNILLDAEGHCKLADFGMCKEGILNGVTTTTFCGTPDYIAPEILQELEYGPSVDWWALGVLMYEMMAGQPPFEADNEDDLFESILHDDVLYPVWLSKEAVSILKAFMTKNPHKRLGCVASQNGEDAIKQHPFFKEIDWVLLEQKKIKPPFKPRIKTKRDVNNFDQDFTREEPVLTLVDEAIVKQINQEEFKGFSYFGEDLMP
Protocol: as §1, §2

[4] = tested on: HepG2 xenografts; assay: Antitumor activity in vivo, HepG2 xenograft; design: species or system BALB/c-nu nude mice; conditions: 5 mg/kg, tail vein injection every other day for two weeks
Protocol: Four-week-old male BALB/c-nu nude mice (15–20 g) were obtained from the Shanghai SLAC Laboratory Animal Co., Ltd. (Shanghai, China). The animals were maintained under specific pathogen-free conditions with food and water supplied ad libitum in the Laboratory Animal Center of the Second Military Medical University. All animal experiments were carried out in accordance with the Guide for the Care and Use of Laboratory Animals of the National Institutes of Health and were approved by the Committee on the Ethics of Animal Experiments of the Second Military Medical University, China.
HepG2 cells were harvested and resuspended in PBS. A total of 5 × 10^6 cells were subcutaneously injected into the right flank. Tumor volume was calculated using the following formula: V = (L × W^2)/2, where L is the length and W is the width of the tumor nodules measured with vernier calipers. Once the volume of the tumors reached 75–100 mm^3, the mice were randomly divided into three groups (n = 5). The mice were treated every other day for two weeks with tail vein injections of either vehicle (5% ethanol and 2.5% polyethylene glycol in saline), compound 7, or ISJ (5 mg/kg in the vehicle). Body weights were measured before each drug injection. After the 15th day, the mice were euthanized, and the tumors were isolated, weighed and photographed.

**Q.** How did the “amounts of cPKC and nPKC captured by ISJ-coupled 4B beads in presence of free compound” value [1] turn out when Isojacareubin [ISJ] was run?
**A.** obvious decline

**Q.** What about the “Inhibitory Ratio (%) QGY-7703” value ([2]; 50 μM) of the same substance?
**A.** 83.69%

**Q.** And the IC50 ([2]; mean ± SD, at least three independent experiments)?
**A.** 4.65 ± 0.32 µM

**Q.** What about the “pull-down of endogenous PKCε by compound-coupled Sepharose 4B beads” value [3] of the same substance?
**A.** pulled down

**Q.** And the “reduction of tumor weight compared to controls” value [4]?
**A.** 74.1%
